In patent publication US20260262643A1, “HERBICIDAL BENZOXAZINES” (FMC CORPORATION, priority 2022, published 2026):

Assays:
ragweed [1] = experiment: Test C preemergence; assay type: in vivo, Ambrosia artemisiifolia; settings: 0 to 100 scale (0 no effect, 100 complete control); for Plant response rating, Ragweed: Preemergence, 500 g ai/ha, visual rating after 10 days; for Ragweed plant response rating: Test C, preemergence, 125 g ai/ha
Outline: (§1)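 Greenhouse herbicide screen, 10-day duration. Test chemicals in solvent/surfactant blend were sprayed onto soil at sowing (pre) or onto 2–10 cm seedlings at one to two leaves (post); injury scored visually against controls, 0 no effect to 100 complete control.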

ryegrass, Italian [2] = experiment: Test C postemergence; assay type: in vivo, Lolium multiflorum; settings: 10 days
Outline: as §1

pigweed, palmer [3] = experiment: Test C postemergence; assay type: in vivo, Amaranthus palmeri; settings: 10 days
Outline: as §1

ryegrass, Italian [4] = experiment: Test C preemergence; assay type: in vivo, Lolium multiflorum; settings: 0 to 100 scale (0 no effect, 100 complete control); for Plant response rating, Ryegrass, Italian: Preemergence, 500 g ai/ha, visual rating after 10 days; for Ryegrass, Italian plant response rating: Test C, preemergence, 125 g ai/ha
Outline: as §1

rice = experiment: Test D flooded paddy test; assay type: in vivo, Oryza sativa; settings: 250 g ai/ha, applied to paddy water, visual rating after 13 to 14 days, scale 0 to 100 (0 no effect, 100 complete control)
Outline: (§2)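 Post-flood water application at the 2-leaf stage; 3 cm flood depth kept constant; visual control rating 0–100 after 13–14 days greenhouse growth.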

kochia [5] = experiment: Test C postemergence; assay type: in vivo, Bassia scoparia; settings: 10 days
Outline: as §1

oat, wild [6] = experiment: Test C preemergence; assay type: in vivo, Avena fatua; settings: 0 to 100 scale (0 no effect, 100 complete control); for Plant response rating, Oat, Wild: Preemergence, 500 g ai/ha, visual rating after 10 days; for Oat, Wild plant response rating: Test C, preemergence, 125 g ai/ha
Outline: as §1

oat, wild [7] = experiment: Test C postemergence; assay type: in vivo, Avena fatua; settings: 10 days
Outline: as §1

soybean [8] = experiment: Test C preemergence; assay type: in vivo, Glycine max; settings: 0 to 100 scale (0 no effect, 100 complete control); for Plant response rating, Soybean: Preemergence, 500 g ai/ha, visual rating after 10 days; for Soybean plant response rating: Test C, preemergence, 125 g ai/ha
Outline: as §1

green foxtail [9] = experiment: Test C preemergence; assay type: in vivo, Setaria viridis; settings: 0 to 100 scale (0 no effect, 100 complete control); for Plant response rating, Foxtail, Green: Preemergence, 500 g ai/ha, visual rating after 10 days; for Foxtail, Green plant response rating: Test C, preemergence, 125 g ai/ha
Outline: as §1

ducksalad = experiment: Test D flooded paddy test; assay type: in vivo, Heteranthera limosa; settings: 250 g ai/ha, applied to paddy water, visual rating after 13 to 14 days, scale 0 to 100 (0 no effect, 100 complete control)
Outline: as §2

green foxtail [10] = experiment: Test C postemergence; assay type: in vivo, Setaria viridis; settings: 10 days
Outline: as §1

horseweed = experiment: Test C postemergence; assay type: in vivo, Erigeron canadensis; settings: 10 days
Outline: as §1

wheat [11] = experiment: Test C preemergence; assay type: in vivo, Triticum aestivum; settings: 0 to 100 scale (0 no effect, 100 complete control); for Plant response rating, Wheat: Preemergence, 500 g ai/ha, visual rating after 10 days; for Wheat plant response rating: Test C, preemergence, 125 g ai/ha
Outline: as §1

sedge, umbrella = experiment: Test D flooded paddy test; assay type: in vivo, Cyperus difformis; settings: 250 g ai/ha, applied to paddy water, visual rating after 13 to 14 days, scale 0 to 100 (0 no effect, 100 complete control)
Outline: as §2

wheat [12] = experiment: Test C postemergence; assay type: in vivo, Triticum aestivum; settings: 10 days
Outline: as §1

barnyardgrass [13] = experiment: Test C postemergence; assay type: in vivo, Echinochloa crusgalli; settings: 10 days
Outline: as §1

blackgrass [14] = experiment: Test C preemergence; assay type: in vivo, Alopecurus myosuroides; settings: 0 to 100 scale (0 no effect, 100 complete control); for Plant response rating, Blackgrass: Preemergence, 500 g ai/ha, visual rating after 10 days; for Blackgrass plant response rating: Test C, preemergence, 125 g ai/ha
Outline: as §1

barnyardgrass [15] = experiment: Test D flooded paddy test; assay type: in vivo, Echinochloa crus-galli; settings: 250 g ai/ha, applied to paddy water, visual rating after 13 to 14 days, scale 0 to 100 (0 no effect, 100 complete control)
Outline: as §2

corn [16] = experiment: Test C postemergence; assay type: in vivo, Zea mays; settings: 10 days
Outline: as §1

kochia [17] = experiment: Test C preemergence; assay type: in vivo, Bassia scoparia; settings: 0 to 100 scale (0 no effect, 100 complete control); for Plant response rating, Kochia: Preemergence, 500 g ai/ha, visual rating after 10 days; for Kochia plant response rating: Test C, preemergence, 125 g ai/ha
Outline: as §1

ragweed [18] = experiment: Test C postemergence; assay type: in vivo, Ambrosia artemisiifolia; settings: 10 days
Outline: as §1

corn [19] = experiment: Test C preemergence; assay type: in vivo, Zea mays; settings: 0 to 100 scale (0 no effect, 100 complete control); for Plant response rating, Corn: Preemergence, 500 g ai/ha, visual rating after 10 days; for Corn plant response rating: Test C, preemergence, 125 g ai/ha
Outline: as §1

pigweed, palmer [20] = experiment: Test C preemergence; assay type: in vivo, Amaranthus palmeri; settings: 0 to 100 scale (0 no effect, 100 complete control); for Plant response rating, Pigweed, Palmer: Preemergence, 500 g ai/ha, visual rating after 10 days; for Pigweed, Palmer plant response rating: Test C, preemergence, 125 g ai/ha
Outline: as §1

soybean [21] = experiment: Test C postemergence; assay type: in vivo, Glycine max; settings: 10 days
Outline: as §1

blackgrass [22] = experiment: Test C postemergence; assay type: in vivo, Alopecurus myosuroides; settings: 10 days
Outline: as §1

barnyardgrass [23] = experiment: Test C preemergence; assay type: in vivo, Echinochloa crusgalli; settings: 0 to 100 scale (0 no effect, 100 complete control); for Plant response rating, Barnyardgrass: Preemergence, 500 g ai/ha, visual rating after 10 days; for Barnyardgrass plant response rating: Test C, preemergence, 125 g ai/ha
Outline: as §1

[24] = 125 g ai/ha, postemergence, 0 to 100 scale, 0 no effect, 100 complete control
[25] = Postemergence, 500 g ai/ha, visual 0 to 100 scale (0 no effect, 100 complete control)

## Cc1ccc(-n2cnc(CS(C)(=O)=O)n2)cc1C(=O)N1C[C@H](C)Oc2c(Cl)cccc21 [Compound 225]
Ragweed [1]
  Plant response rating, Ragweed: 90
  Ragweed plant response rating: 70
ryegrass, Italian [2]; [24]
  Plant response rating, Ryegrass, Italian: 70
ryegrass, Italian [2]; [25]
  Plant response rating, Ryegrass, Italian: 90
pigweed, palmer [3]; [24]
  Plant response rating, Pigweed, Palmer: 90
pigweed, palmer [3]; [25]
  Plant response rating, Pigweed, Palmer: 100
ryegrass, Italian [4]
  Plant response rating, Ryegrass, Italian: 80
  Ryegrass, Italian plant response rating: 60
rice
  Plant response rating, Rice (Flood): 15
Kochia [5]; [24]
  Plant response rating, Kochia: 80
Kochia [5]; [25]
  Plant response rating, Kochia: 90
oat, wild [6]
  Plant response rating, Oat, Wild: 90
  Oat, Wild plant response rating: 60
oat, wild [7]; [24]
  Plant response rating, Oat, Wild: 60
oat, wild [7]; [25]
  Plant response rating, Oat, Wild: 70
Soybean [8]
  Plant response rating, Soybean: 90
  Soybean plant response rating: 80
Green foxtail [9]
  Plant response rating, Foxtail, Green: 100
  Foxtail, Green plant response rating: 100
ducksalad
  Plant response rating, Ducksalad (Flood): 100
Green foxtail [10]; [24]
  Plant response rating, Foxtail, Green: 20
Green foxtail [10]; [25]
  Plant response rating, Foxtail, Green: 90
horseweed; [24]
  Plant response rating, Horseweed: 20
horseweed; [25]
  Plant response rating, Horseweed: 80
Wheat [11]
  Plant response rating, Wheat: 80
  Wheat plant response rating: 20
sedge, umbrella
  Plant response rating, Sedge, Umbrella (Flood): 100
Wheat [12]; [24]
  Plant response rating, Wheat: 30
Wheat [12]; [25]
  Plant response rating, Wheat: 90
Barnyardgrass [13]; [24]
  Plant response rating, Barnyardgrass: 20
Barnyardgrass [13]; [25]
  Plant response rating, Barnyardgrass: 70
Blackgrass [14]
  Plant response rating, Blackgrass: 80
  Blackgrass plant response rating: 60
Barnyardgrass [15]
  Plant response rating, Barnyardgrass (Flood): 25
Corn [16]; [24]
  Plant response rating, Corn: 80
Corn [16]; [25]
  Plant response rating, Corn: 90
Kochia [17]
  Plant response rating, Kochia: 100
  Kochia plant response rating: 20
Ragweed [18]; [24]
  Plant response rating, Ragweed: 90
Ragweed [18]; [25]
  Plant response rating, Ragweed: 90
Corn [19]
  Plant response rating, Corn: 90
  Corn plant response rating: 20
pigweed, palmer [20]
  Plant response rating, Pigweed, Palmer: 100
  Pigweed, Palmer plant response rating: 100
Soybean [21]; [24]
  Plant response rating, Soybean: 100
Soybean [21]; [25]
  Plant response rating, Soybean: 100
Blackgrass [22]; [24]
  Plant response rating, Blackgrass: 50
Blackgrass [22]; [25]
  Plant response rating, Blackgrass: 90
Barnyardgrass [23]
  Plant response rating, Barnyardgrass: 100
  Barnyardgrass plant response rating: 50

## COc1cc(C(=O)N2C[C@H](C)Oc3c(Cl)cccc32)cc(-n2cnc(C)n2)c1 [Compound 215]
Ragweed [1]
  Plant response rating, Ragweed: 30
  Ragweed plant response rating: 0
ryegrass, Italian [2]; [24]
  Plant response rating, Ryegrass, Italian: 70
ryegrass, Italian [2]; [25]
  Plant response rating, Ryegrass, Italian: 90
pigweed, palmer [3]; [24]
  Plant response rating, Pigweed, Palmer: 90
pigweed, palmer [3]; [25]
  Plant response rating, Pigweed, Palmer: 100
ryegrass, Italian [4]
  Plant response rating, Ryegrass, Italian: 100
  Ryegrass, Italian plant response rating: 90
rice
  Plant response rating, Rice (Flood): 55
Kochia [5]; [24]
  Plant response rating, Kochia: 80
Kochia [5]; [25]
  Plant response rating, Kochia: 90
oat, wild [6]
  Plant response rating, Oat, Wild: 90
  Oat, Wild plant response rating: 50
oat, wild [7]; [24]
  Plant response rating, Oat, Wild: 30
oat, wild [7]; [25]
  Plant response rating, Oat, Wild: 50
Soybean [8]
  Plant response rating, Soybean: 100
  Soybean plant response rating: 80
Green foxtail [9]
  Plant response rating, Foxtail, Green: 100
  Foxtail, Green plant response rating: 100
ducksalad
  Plant response rating, Ducksalad (Flood): 100
Green foxtail [10]; [24]
  Plant response rating, Foxtail, Green: 90
Green foxtail [10]; [25]
  Plant response rating, Foxtail, Green: 90
horseweed; [24]
  Plant response rating, Horseweed: 0
horseweed; [25]
  Plant response rating, Horseweed: 70
Wheat [11]
  Plant response rating, Wheat: 90
  Wheat plant response rating: 20
sedge, umbrella
  Plant response rating, Sedge, Umbrella (Flood): 100
Wheat [12]; [24]
  Plant response rating, Wheat: 30
Wheat [12]; [25]
  Plant response rating, Wheat: 70
Barnyardgrass [13]; [24]
  Plant response rating, Barnyardgrass: 60
Barnyardgrass [13]; [25]
  Plant response rating, Barnyardgrass: 70
Blackgrass [14]
  Plant response rating, Blackgrass: 90
  Blackgrass plant response rating: 70
Barnyardgrass [15]
  Plant response rating, Barnyardgrass (Flood): 50
Corn [16]; [24]
  Plant response rating, Corn: 70
Corn [16]; [25]
  Plant response rating, Corn: 90
Kochia [17]
  Plant response rating, Kochia: 100
  Kochia plant response rating: 90
Ragweed [18]; [24]
  Plant response rating, Ragweed: 60
Ragweed [18]; [25]
  Plant response rating, Ragweed: 70
Corn [19]
  Plant response rating, Corn: 60
  Corn plant response rating: 30
pigweed, palmer [20]
  Plant response rating, Pigweed, Palmer: 100
  Pigweed, Palmer plant response rating: 100
Soybean [21]; [24]
  Plant response rating, Soybean: 100
Soybean [21]; [25]
  Plant response rating, Soybean: 100
Blackgrass [22]; [24]
  Plant response rating, Blackgrass: 90
Blackgrass [22]; [25]
  Plant response rating, Blackgrass: 90
Barnyardgrass [23]
  Plant response rating, Barnyardgrass: 100
  Barnyardgrass plant response rating: 80
